Results as given in article PMC11111636 (EJNMMI Radiopharmacy and Chemistry, 2024).

Experiments:
U2OS.SSTR2 cells = test: Uptake/internalization studies in U2OS.SSTR2 cells; assay type: cell-based, human
Procedure: Cells were seeded in 6-well plates 24 h before the experiment (7 × 10^5 cells/well). […] The membrane-bound fraction was collected by incubating cells with an acid buffer (50 mM glycine, 100 mM NaCl, pH 2.8) for 10 min at rt. The internalized fraction was determined by lysing the cells with 1 M NaOH for 5 min at rt. Both fractions were measured in a gamma counter, and data were analyzed in GraphPad Prism v9 and expressed as percentage of added dose.

[1] = Ex vivo biodistribution in H69-tumor bearing mice; details: mouse, in vivo
Procedure: (§1) Six-week‐old female Balb/c nu/nu‐specific mice (Janvier Labs, Le Genest‐Saint‐Isle, France) were housed in individually ventilated cages (4 mice/cage). Upon arrival, mice were acclimated for one week, with access to food and water ad libitum. Mice were subcutaneously inoculated on the right shoulder with NCI-H69 cells (5 × 10^6 cells) suspended in 100 μL of 1/3 Matrigel (Corning Inc.; Corning, NY, USA) and 2/3 Hank’s balanced salt solution (Gibco; Paisley, UK). NCI-H69 xenografts were allowed to grow for 2 weeks.
(§2) At 3 selected time points (1, 4 and 24 h; n = 4) p.i., blood was collected via retro-orbital puncture under isoflurane/O2 anesthesia, after which the mice were sacrificed via cervical dislocation. The tumor and organs of interest (heart, lungs, liver, spleen, stomach, large intestine, small intestine, pancreas, kidneys, muscle, skin, bone) were excised, washed in PBS and blotted dry. […] To determine the total injected radioactivity per animal, a calibration curve with indium-111 was established using the gamma counter. The percentage of injected dose per gram (% ID/g) was determined for each tissue and corrected for both the injected activity and % ID present at the injection site (the tail). Then, the tumor and the organs were placed in a petri dish and ex vivo optical imaging was performed with the IVIS Spectrum system (Perkin Elmer, Waltham, MA, USA) using the following settings for all measurements: FOV 19.5 cm, medium binning, f2, 60 s exposure with an excitation/emission filter of 646 nm/662 nm. Living Image version 4.5.2 software (Perkin Elmer) was used to perform data analysis by drawing regions of interest around the organ/tissue to quantify the radiant efficiency {(photons/second/cm^2/steradian)/(μW/cm^2)}.

[2] = tested on: H69-xenograft Balb/c nu/nu mice; test: Ex vivo biodistribution in H69-tumor bearing mice; details: for Uptake in Tumor: i.v., n = 4
Procedure: as §1, §2

tissue uptake at 4 h ([1]; Uptake in Intestines, 4 h block (co-injected 50 nmol DOTA-TATE), n = 4): 0.57 ± 0.35 %ID/g | tissue uptake at 4 h ([1]; Uptake in Kidneys, 4 h block (co-injected 50 nmol DOTA-TATE), n = 4): 7.75 ± 1.03 %ID/g | tissue uptake at 4 h ([1]; Uptake in Liver, 4 h block (co-injected 50 nmol DOTA-TATE), n = 4): 0.15 ± 0.08 %ID/g | tissue uptake at 4 h ([1]; Uptake in Skin, 4 h block (co-injected 50 nmol DOTA-TATE), n = 4): 0.28 ± 0.13 %ID/g | tissue uptake at 4 h ([1]; Uptake in Stomach, 4 h block (co-injected 50 nmol DOTA-TATE), n = 4): 0.1 ± 0.03 %ID/g | tissue uptake at 1 h ([1]; iv, Uptake in Blood, 1 h p.i., n = 4): 0.41 ± 0.12 %ID/g | tissue uptake at 24 h ([1]; iv, Uptake in Blood, 24 h p.i., n = 4): 0.04 ± 0.03 %ID/g | tissue uptake at 4 h ([1]; iv, Uptake in Bones, 4 h p.i., n = 4): 0.13 ± 0.03 %ID/g | tissue uptake at 24 h ([1]; iv, Uptake in Bones, 24 h p.i., n = 4): 0.14 ± 0.05 %ID/g | tissue uptake at 1 h ([1]; iv, Uptake in Heart, 1 h p.i., n = 4): 0.16 ± 0.08 %ID/g | tissue uptake at 4 h ([1]; iv, Uptake in Heart, 4 h p.i., n = 4): 0.04 %ID/g | tissue uptake at 1 h ([1]; iv, Uptake in Intestines, 1 h p.i., n = 4): 0.74 ± 0.3 %ID/g | tissue uptake at 4 h ([1]; iv, Uptake in Intestines, 4 h p.i., n = 4): 0.77 ± 0.24 %ID/g | tissue uptake at 24 h ([1]; iv, Uptake in Intestines, 24 h p.i., n = 4): 0.13 ± 0.01 %ID/g | tissue uptake at 1 h ([1]; iv, Uptake in Kidneys, 1 h p.i., n = 4): 12.2 ± 1.33 %ID/g | tissue uptake at 4 h ([1]; iv, Uptake in Kidneys, 4 h p.i., n = 4): 10.6 ± 0.39 %ID/g | tissue uptake at 24 h ([1]; iv, Uptake in Kidneys, 24 h p.i., n = 4): 6.93 ± 1.02 %ID/g | tissue uptake at 1 h ([1]; iv, Uptake in Liver, 1 h p.i., n = 4): 0.21 ± 0.03 %ID/g | tissue uptake at 4 h ([1]; iv, Uptake in Liver, 4 h p.i., n = 4): 0.16 ± 0.01 %ID/g | tissue uptake at 24 h ([1]; iv, Uptake in Liver, 24 h p.i., n = 4): 0.08 ± 0.01 %ID/g | tissue uptake at 1 h ([1]; iv, Uptake in Lungs, 1 h p.i., n = 4): 0.86 ± 0.09 %ID/g | tissue uptake at 4 h ([1]; iv, Uptake in Lungs, 4 h p.i., n = 4): 0.52 ± 0.13 %ID/g | tissue uptake at 4 h ([1]; iv, Uptake in Muscle, 4 h p.i., n = 4): 0.02 %ID/g | tissue uptake at 24 h ([1]; iv, Uptake in Muscle, 24 h p.i., n = 4): 0.01 ± 0.01 %ID/g | tissue uptake at 1 h ([1]; iv, Uptake in Pancreas, 1 h p.i., n = 4): 2.9 ± 0.6 %ID/g | tissue uptake at 4 h ([1]; iv, Uptake in Pancreas, 4 h p.i., n = 4): 1.3 ± 0.1 %ID/g | tissue uptake at 24 h ([1]; iv, Uptake in Pancreas, 24 h p.i., n = 4): 0.6 ± 0.05 %ID/g | tissue uptake at 1 h ([1]; iv, Uptake in Skin): 0.49 ± 0.26 %ID/g | tissue uptake at 4 h ([1]; iv, Uptake in Skin, 4 h p.i., n = 4): 0.29 ± 0.09 %ID/g | tissue uptake at 24 h ([1]; iv, Uptake in Skin, 24 h p.i., n = 4): 0.13 ± 0.02 %ID/g | tissue uptake at 24 h ([1]; iv, Uptake in Spleen): 0.11 ± 0.01 %ID/g | tissue uptake at 4 h ([1]; iv, Uptake in Spleen, 4 h p.i., n = 4): 0.13 ± 0.02 %ID/g | tissue uptake at 1 h ([1]; iv, Uptake in Stomach, 1 h p.i., n = 4): 1.84 ± 0.18 %ID/g | tissue uptake at 4 h ([1]; iv, Uptake in Stomach, 4 h p.i., n = 4): 1.23 ± 0.16 %ID/g | tissue uptake at 24 h ([1]; iv, Uptake in Stomach, 24 h p.i., n = 4): 0.51 ± 0.13 %ID/g | tissue uptake at 1 h ([1]; iv, Uptake in Tumor, 1 h p.i., n = 4): ~5 %ID/g | tissue uptake at 4 h ([1]; iv, Uptake in Tumor, 4 h p.i., n = 4): 5.47 ± 0.3 %ID/g | tissue uptake at 24 h ([1]; iv, Uptake in Tumor, 24 h p.i., n = 4): ~3 %ID/g | Uptake in Tumor ([2]; 1 h p.i.): 5.55 ± 1.31 % ID/g | Uptake in Tumor ([2]; 24 h p.i.): 3.19 ± 0.29 % ID/g
Structure (SMILES): C[C@@H](O)[C@H](NC(=O)[C@@H]1CSSC[C@H](NC(=O)[C@@H](Cc2ccccc2)NC(=O)CN2CCN(CC(=O)O)CCN(CC(=O)O)CCN(CC(=O)O)CC2)C(=O)N[C@@H](Cc2ccc(O)cc2)C(=O)N[C@H](Cc2c[nH]c3ccccc23)C(=O)N[C@@H](CCCCN)C(=O)N[C@@H]([C@@H](C)O)C(=O)N1)C(=O)O [[^111In]In-DOTA-TATE, metal not drawn, reference compound]
Internalized fraction of radioactivity (U2OS.SSTR2 cells; 10^-9 M, 90 min, 37 °C): 94% | Total uptake (U2OS.SSTR2 cells; 10^-9 M, 90 min, 37 °C, % of added dose per 1,000,000 cells, n = 3): 46.22 ± 4.58 % AD | Cell uptake with excess of unlabeled DOTA-TATE (U2OS.SSTR2 cells; 50-fold excess DOTA-TATE): almost completely blocked | Tumor uptake reduction by co-injection of an excess of DOTA-TATE ([2]; 4 h p.i., compared to the unblocked group): 98%
